# Test results from patent publication US20030170731A1, “Diagnosis and treatment of non-ulcer dyspepsia based on hypothalamic-pituitary-adrenal axis abnormallity” (priority 2000, published 2003).
# Tested on: CRH receptors
# Assay: CRH/ACTH test: plasma ACTH after intravenous ovine CRH, immunoradiometric assay
# Type: in vivo, human
# Conditions: ovine CRH 100 μg intravenously
# Description: A total of ten patients with NUD were recruited from the Gastroenterology Clinic at St. James's Hospital, Dublin. Patients consisted of six men and four woman between the ages of twenty eight and forty five. They were matched for age and sex with ten healthy volunteers. To be included in the study patients had at least four of the following symptoms for at least three months: early satiety, upper abdominal pain, post prandial bloating, excessive flatulence, borborygmus, and nausea and/or vomiting. They all had normal results on physical examination. Endoscopic examination, twenty-four hour ambulatory pH monitoring, abdominal ultrasound were all negative. Five patients with H. pylori infestation were tested both before and after H. pylori eradication. The other five patients had no evidence of H. pylori infection. None of the patients had evidence of a formal psychiatric illness. Also none of the patients fulfilled the criteria for IBS.
# Patients who were H. pylori positive were re-tested six months after commencing eradication therapy. In all cases endocrine tests were commenced at 1400 h. The test procedure was as follows. […]
# Plasma ACTH was measured using a two site unextracted immunoradiometric assay with a commercially available kit supplied by the Nichols Institute (San Juan Capistrano, Calif.). […]
substance,measurement,setting,value
"ovine CRH: ovine variant of corticotropin releasing hormone, given intravenously as a challenge agent",CRH/ACTH enhancement following H. pylori eradication therapy,H. pylori positive NUD patients re-tested six months after commencing eradication therapy,persists
same,plasma ACTH response following CRH stimulation,"NUD patients with and without H. pylori infection, relative to healthy volunteers, blood at 15-120 min",vastly enhanced
